Test results taken from publication PMC3401593 (Journal of Pharmaceutical Sciences, 2009).
Marks after values point to notes of the source that are not given here.

Key:
[1] = tested on: mdr1a/b (+/+) and mdr1a/b (−/−) mice; details: mouse, in vivo
[2] = mouse, in vivo, sc
P-gp = experiment: in vitro; details: human, Caco-2, Papp B–A
in vitro = details: human, Caco-2

## CCC(=O)C(CC(C)N(C)C)(c1ccccc1)c1ccccc1 (centres unmarked) [Methadone, methadone]
[1]
  %MPE, P-gp knockout mice versus wild-type: significantly higher
  Area Under the Effect Curve (AUEC), mdr1a/b (+/+): 1501.85 ± 246.45 % MPE × min
  Area Under the Effect Curve (AUEC), mdr1a/b (−/−): 4099.26 ± 488.58 ^a % MPE × min
  Time of peak %MPE: 15 min
[2]
  Levels in liver and kidney tissues, mdr1a/b (−/−) versus mdr1a/b (+/+) mice: no significant differences
P-gp
  Papp B→A: 19.4 ± 1.01 ×10⁻⁶ cm/s

## OC[C@@H](O)[C@@H](O)[C@H](O)[C@H](O)CO [mannitol]
In vitro
  Papp at 0.2 μCi/mL: 5.21 ×10⁻⁶ cm/s

## buprenorphine
[1]
  AUEC Ratio mdr1a/b (−/−)/mdr1a/b (+/+): 1.47 ± 0.3
  Area Under the Effect Curve (AUEC), mdr1a/b (+/+): 1943.74 ± 326.81 % MPE × min
  Area Under the Effect Curve (AUEC), mdr1a/b (−/−): 2854.93 ± 325.27 % MPE × min
  Time of peak %MPE: 45 min
